From patent US20140199261A1, “METHOD OF REDUCING MULTI-DRUG RESISTANCE USING INOSITOL TRIPYROPHOSPHATE” (Universite de Strasbourg, priority 2009, published 2014)

Key:
[1] = test system: Human MiaPaca in Nude Mouse; experiment: Median survival, human MiaPaca tumor in nude mouse; assay type: in vivo
Description: (§1) Median survival time of animals with ductal pancreatic adenocarcinoma treated with OXY111A and/or gemcitabine was followed and summarized in Table 1 below: […]

[2] = test system: Rat tumor in Nude Mouse (ductal pancreatic adenocarcinoma); experiment: Median survival, rat pancreatic tumor in nude mouse; assay type: in vivo
Description: as §1

[3] = test system: Human Panc-1 pancreatic tumor xenograft; experiment: Median survival, human Panc-1 pancreatic tumor xenograft in nude mouse; assay type: in vivo
Procedure: In the ITPP treatment group, mice with tumor xenograft were treated with ITPP (2 mg/Kg) weekly during the period of day 14 to day 49. In the gemcitabine treatment group, mice with tumor xenograft were treated with gemcitabine (100 mg/Kg) on days 16, 18 and 20. Animals in the control group were not treated.
In the combination treatment group, mice with tumor xenograft were treated with ITPP (2 mg/Kg) in combination with gemcitabine (25 mg/Kg or 50 mg/Kg) weekly during the period of day 14 to day 49. In the
gemcitabine treatment group, mice with tumor xenograft were treated with gemcitabine (100 mg/Kg) on days 16, 18 and 20. Animals in the control group were not treated.
In the xenograft tumor model, mice in the combination treatment group received administration of ITPP (2 mg/Kg) in combination with gemcitabine (25 mg/Kg or 50 mg/Kg) weekly during the period of day 14 to day 49. Mice in the gemcitabine treatment group received administration of gemcitabine (100 mg/Kg) on days 16, 18 and 20. Mice in the control group were not treated.
as §1

[4] = test system: Syngeneic rat tumor in rat (ductal pancreatic adenocarcinoma); experiment: Median survival, syngeneic rat pancreatic tumor in rat; assay type: in vivo
Procedure: (§2) In the ITPP treatment group, rats with pancreatic tumor were treated with ITPP (1.5 mg/Kg) weekly during the period of day 14 to day 49. In the gemcitabine treatment group, rats with pancreatic tumor were treated with gemcitabine (100 mg/Kg) on days 16, 18 and 20. Animals in the control group were not treated.
as §2, with “the combination” for “the ITPP”, “(1.5 mg/Kg) in combination with gemcitabine (25 mg/Kg or 50” for “(1.5”
In the rat pancreatic tumor model, rats in the combination treatment group received ITPP (1.5 mg/Kg) in combination with gemcitabine (25 mg/Kg or 50 mg/Kg) weekly during the period of day 14 to day 49. Rats in the gemcitabine treatment group received administration of gemcitabine (100 mg/Kg) alone on days 16, 18 and 20. Rats in the control group were not treated.
as §1

[5] = test system: B16F10LucGFP subcutaneous tumors; experiment: Subcutaneous melanoma model (lung metastases, vessel normalization, drug efflux pump); assay type: in vivo, mouse
Procedure: (§3) B16F10LucGFP cells were grown as subcutaneous tumors, after injecting 100 μl of a plug constituted by 10^5 cells in 25% Matrigel™ (50% in OptiMEM). Matrigel was from BD Biosciences and OptiMEM from Invitrogen. Mice were euthanized and tumors and lungs excised 25 days after inoculation. […] Treatment was initiated 7, 9 or 11 days post melanoma cell inoculation.
Tumor tissues were embedded in Tissue-Tek (Sakura), tissue freezing medium and snap frozen in liquid nitrogen. Cryosections were fixed and stained using a rat monoclonal IgG2a antibodies against mouse CD31 (PECAM-I, platelet/endothelial cell adhesion molecule) from eBiosciences, rabbit IgG anti-SMA (smooth muscle actin) antibody (AbCAM), or mouse IgG2a anti-P-Glycoprotein (C219) (Calbiochem), diluted 1:200 in FCS 5% in PBS. Goat IgG-FITC-labeled anti-rat immunoglobulin, goat IgG-FITC-labelled anti-rabbit immunoglobulin or goat IgG-FITC-labelled anti-mouse immunoglobulin (diluted 1:200 in PBS) was used as secondary antibodies respectively. To detect cell nuclei, sections were incubated with bis-Benzimide H 33258 (Sigma-Aldrich) 1:1000 in PBS. Specimens were mounted in Vectashield (Vector) and fluorescent microscopy detection was performed on a Zeiss 200M inverted fluorescent microscope. Tumor necrosis was analysed after Hematoxylin eosine staining of tumor sections.
MRI assays were performed with a 9.4 T horizontal magnet for small animals (94/21 USR Bruker Biospec), equipped with a 950 mT/m gradient set. Mice were placed in a linear homogeneous coil (inner diameter: 35 mm). Animals were maintained under gaseous (50% N2O: 0.7 l/min—50% O2: 0.7l/min—Isoflurane 1.5%) anesthesia, temperature kept constant at 36° C. and breathing rate was monitored during the acquisitions using air balloon placed on the mouse chest to adjust the anesthetic output. Measurement of tumor vascularization was performed by MR angiography using the Fast Low Angle Shot (FLASH) sequence both in the axial and coronal planes. The FLASH pulse sequence was adapted to the study of the evolution of the angiogenesis of the tumor. This technique allows the 3D structure of the vascular tree of the tumor on the same animal to be followed overtime.
Structural changes of microcirculation in tumors were assessed by MRA (Magnetic Resonance Angiography) adaptation of Magnetic Resonance Imaging (MRI) to follow the 3D structure of the vascular tree of the tumor.

[6] = test system: B16 tumor; experiment: Immune cell infiltration into B16 tumor; assay type: in vivo
Procedure: OXY111A was injected intraperitoneally on days 7, 8, 14, 15, 21, 22, 29 and 30. Analysis of the B16 tumor was performed on day 31.
(a) to (c) untreated B16 tumor; (d) to (f) B16 tumor treated with ITPP. Green arrows indicate the infiltrating NK cells; red arrows indicate the vessel walls.
B16 tumor cells were labeled with B16F10 DAPI; NK cells were labeled by anti-CD49bFITCl; and vessel endothelial cells were labeled by antiCD31TRITC. (a) untreated B 16 tumor; (b) and (c) B 16 tumor treated with ITPP.

[7] = test system: B16F10LucGFP murine melanoma cells; experiment: Experimental metastasis assay (intravenous B16F10LucGFP melanoma cells), lung markers; assay type: in vivo, mouse
Procedure: After intravenous injection of B16F10LucGFP murine melanoma cells (10^5 cells in 0.1 ml saline) in the tail vein, mice (eight-week-old female C57BL/6 from Janvier) were treated by 1.5 g/kg ITPP IP injected every 5 days (10 mice per treatment group). Treatment was initiated at day 5 after tumor cells inoculation. 19 or 27 days later, mice were euthanized and lungs collected separately. Macroscopic lung foci were counted and luciferase was determined by chemoluminescence assay (Promega) in order to quantify the amount of melanoma cells in tissues. All animal study procedures and the use of animals were approved by the Comite d'Ethique pour l'expérimentation animale, Campus CNRS d'Orléans, France.
Lungs were homogenized in lysis buffer (Active motif). After centrifugations, clear supernatant was collected. Total protein amount was determined by BCA protein assay kit (Thermo Scientific). HIF-1α, VEGF, Tie-2 and HO-1 in lung lysates were quantified using colorimetric sandwich ELISA according to the manufacturer's instructions. The HIF-1α, VEGF and Tie-2 ELISA kits were from R&D. The HO-1 ELISA kit was from Takara.
The Taqman polymerase chain reaction primer sequences for LOX were 5′-[…]-3′ (SEQ ID NO: 1) and 5′-[…]-3′ (SEQ ID NO: 2). For β-actin (internal control), the primer sequences were 5′-[…] ATCC-3′ (SEQ ID NO: 3) and 5′-[…]-3′ (SEQ ID NO: 4). The amplified cDNAs bands were quantified with ImageQuant software (Becton and Dickinson). LOX mRNA levels were normalized relatively to β-actin mRNA.
To validate ITPP as an anti-metastatic agent, the “artificial” model of lung metastasis was used by injecting intravenously melanoma cells in mice. The B16F10LucGFP cell line was used, which is the melanoma B16F10 line transduced by GFP and luciferase reporter genes allowing to track and quantify the melanoma cells by analysis of luciferase activity in tissues.

[8] = test system: subcutaneous melanoma tumor; experiment: Oxylite pO2 measurement in subcutaneous melanoma tumor; assay type: in vivo, mouse
Procedure: as §3
The oxylite 2000E PO2 system (Oxford Optronics) measures pO2 by determining the O2-dependant fluorescence lifetime of ruthenium chloride which is immobilized at the tip of 230-μm diameter fiber-optic probe. The lifetime of the fluorescent pulse is inversely proportional to the oxygen tension in the tip. The mouse was anesthetized with intraperitoneal injection of xylazine/ketamin before the oxylite probe tip was installed inside the tumor and oxygen pressure recorded as described.
To confirm that ITPP-RBCs counteract hypoxia in vivo, a comparison of the values of the oxygen tension inside the melanoma tumors implanted subcutaneously above the left leg, in ITPP-treated and untreated mice was performed. Oxygen pressure (pO2) was computed by determining the O2-dependent fluorescence lifetime of ruthenium chloride on the tip of a fibre-optic probe. The lifetime of the fluorescent pulse is inversely proportional to the oxygen tension in the tip of the probe. While the tumors in non-treated animals, were strongly hypoxic with an oxygen pressure value below 2 mmHg (FIG. 1), in tumors of ITPP-treated mice pO2 reached the range of 40 mmHg (FIG. 1A). This pO2 increase occurred as soon as 30 minutes after intra-peritoneal injection of ITPP (FIG. 1B, C) and was maintained at a high level, up to 40 mmHg, as shown 24 hours after injection (FIG. 1A) for at least 48 hours.

[9] = test system: endothelial cells; experiment: Endothelial cell sensitivity to chemotherapeutic drugs; assay type: cell-based, mouse; details: drug by itself, FIG. 4C
Procedure: Cell viability was evaluated by Alamar blue test (Biosource) as described by the manufacturer.

Nc1ccn([C@@H]2O[C@H](CO)[C@@H](O)C2(F)F)c(=O)n1 [Gemcitabine, gemcitabine, reference compound] was tested, and the Median survival time ([1]; Gemcitabine alone, 100 mg/kg) was 140 days, the Median survival time ([2]; Gemcitabine alone, 100 mg/kg) was 89 days and the Median survival time ([3]; Gemcitabine alone, 100 mg/kg) was 141 days. It also gave a Median survival time ([4]; Gemcitabine alone, 100 mg/kg) of 58 days.
With O=P1([O-])OC2C3OP(=O)([O-])OP(=O)([O-])OC3C3OP(=O)([O-])OP(=O)([O-])OC3C2OP(=O)([O-])O1.[Na+].[Na+].[Na+].[Na+].[Na+].[Na+] (stereo not drawn) [ITPP, hexasodium myo-inositol trispyrophosphate] the “Tumor vasculature (MRA)” value ([5]; ITPP on day 9 and 14, repeated on days 18 and 19) was “less dense and remarkably normalized”, the Tumor size ([5]; ITPP on days 9, 14, 18, 19) was “remarkable reduction of the tumor size” and the “P-glycoprotein drug efflux pump in tumor” value ([5]; implanted primary tumors, immunostaining) was “down-regulates”. The Lung metastases ([5]; initiation of ITPP on day 9 or 11) was “less effective”, the Lung metastases ([5]; initiation on day 9 or 11, chronic administrations) was “enhancement of pulmonary metastases” and the Lung metastases ([5]; short-term treatment (3 ITPP injections, 5 days intervals) started on day 7) was “reduced significantly the lung metastases”. For the same compound, the Median survival time ([1]; OXY111A alone, 2 mg/kg) was 155 days, the Median survival time ([2]; OXY111A alone, 2 mg/kg) was 107 days and the Median survival time ([3]; OXY111A alone, 2 mg/kg) was 155 days. For the same compound, the “Infiltration of CD49b NK cells into tumor” value ([6]; in vivo) was “significantly enhanced”, the “Presence of CD31 EC cells in tumor” value ([6]; in vivo) was “significantly enhanced” and the “Infiltration of CD68 (M2 type) macrophages into tumor” value ([6]; intraperitoneal injections on days 7, 8, 14, 15, 21, 22, 29 and 30) was “significantly enhanced”. For the same compound, the Median survival time ([4]; OXY111A alone, 1.5 mg/kg) was 102 days, the “Tie-2 expression in lungs” value ([7]; ELISA on lung lysates) was “re-induced” and the “VEGF level in lungs” value ([7]; ELISA on lung lysates) was “decreased to control levels”. For the same compound, the “HIF-1α levels in lungs” value ([7]; ELISA on lung lysates, vs untreated melanoma bearing mice) was “decreased dramatically”, the “HO-1 expression in lungs” value ([7]; ELISA, compared to non-treated mice) was “significantly reduced” and the “Metastatic nodules in lung” value ([7]; ITPP treatment started from day 5, until day 27) was “very significantly reduced”. For the same compound, the “Lysyl-oxidase (LOX) mRNA” value ([7]; semi-quantitative PCR) was “beneficial effect”, the “pO2 level maintained in tumor” value ([8]; 24 hours after injection) was “up to 40 mmHg” and the “Duration of high tumor pO2” value ([8]; after injection) was “at least 48 hours”. The “Time to pO2 increase in tumor” value ([8]; after intra-peritoneal injection of ITPP) was 30 minutes, the “pO2 in muscle of non tumoral leg” value ([8]; parallel measurement in same animal) was “no change or any effect on pO2 was detected” and the “Oxygen pressure (pO2) in tumor” value ([8]; tumors of ITPP-treated mice, FIG. 1A) was roughly 40 mmHg.
CC(=O)O[C@H]1C(=O)[C@@]2(C)[C@H]([C@H](OC(=O)c3ccccc3)[C@]3(O)C[C@H](OC(=O)[C@H](O)[C@@H](NC(=O)c4ccccc4)c4ccccc4)C(C)=C1C3(C)C)[C@]1(OC(C)=O)CO[C@@H]1C[C@@H]2O [Paclitaxel, paclitaxel] was tested, and the “Growth of endothelial cells” value [9] was “inhibited the growth of the endothelial cells”.
In the case of N.N.[Cl][Pt][Cl] [cisplatin, cis-dichlorodiamine platinum], the “Growth of endothelial cells” value [9] is reported as “inhibited the growth of the endothelial cells”.
